Assay results: patent publication US12351580B2, “NLRP3 modulators” (Innate Tumor Immunity, Inc., priority 2017, dated 2025)
Counter-ions that a name gives are not always drawn.

These compounds were tested against T1, hNLRP3 (Homo sapiens, UniProt Q96P20) (assay: Measurement of IL-1β production in PMA-differentiated THP-1 cells (hNLRP3 agonist; ELISA, alternative and hTRF procedures)).
T1 construct: THP-1 cells were purchased from the American Type Culture Collection; host or cells: THP-1 cells, PMA-differentiated
T1 sequence (Q96P20 whole entry): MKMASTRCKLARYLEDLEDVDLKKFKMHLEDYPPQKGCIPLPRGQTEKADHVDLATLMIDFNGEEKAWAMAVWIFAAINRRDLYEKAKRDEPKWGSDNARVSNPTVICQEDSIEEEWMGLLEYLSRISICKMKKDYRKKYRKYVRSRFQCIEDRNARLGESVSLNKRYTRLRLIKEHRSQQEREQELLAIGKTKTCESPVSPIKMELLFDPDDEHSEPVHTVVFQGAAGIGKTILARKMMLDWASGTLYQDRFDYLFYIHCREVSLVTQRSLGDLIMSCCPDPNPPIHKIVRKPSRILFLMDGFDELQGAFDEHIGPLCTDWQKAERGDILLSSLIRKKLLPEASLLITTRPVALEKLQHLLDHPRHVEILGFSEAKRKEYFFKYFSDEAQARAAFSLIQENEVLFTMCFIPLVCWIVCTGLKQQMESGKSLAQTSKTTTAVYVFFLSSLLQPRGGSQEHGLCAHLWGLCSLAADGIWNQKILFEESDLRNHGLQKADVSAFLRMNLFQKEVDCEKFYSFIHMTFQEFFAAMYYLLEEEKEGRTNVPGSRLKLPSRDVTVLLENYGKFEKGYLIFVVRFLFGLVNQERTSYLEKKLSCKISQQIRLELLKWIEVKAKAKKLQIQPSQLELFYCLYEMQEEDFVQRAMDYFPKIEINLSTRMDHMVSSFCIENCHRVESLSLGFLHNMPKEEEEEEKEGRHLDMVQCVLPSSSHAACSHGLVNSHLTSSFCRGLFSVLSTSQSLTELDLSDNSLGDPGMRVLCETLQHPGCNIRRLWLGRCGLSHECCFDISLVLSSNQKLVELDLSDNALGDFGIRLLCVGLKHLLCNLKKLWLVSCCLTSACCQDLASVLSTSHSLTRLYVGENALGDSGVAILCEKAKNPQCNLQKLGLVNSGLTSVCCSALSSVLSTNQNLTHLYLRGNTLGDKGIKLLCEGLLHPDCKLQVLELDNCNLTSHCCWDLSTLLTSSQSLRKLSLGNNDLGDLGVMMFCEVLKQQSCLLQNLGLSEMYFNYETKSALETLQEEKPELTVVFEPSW
Type: cell-based
How it was run: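 Supernatant IL-1β was quantified by ELISA in two procedures and by hTRF (kit antibodies at 1:40) in a third. THP-1 cells were first differentiated with PMA ([…] for 24 h; 20 μg/ml overnight; 50 ng/ml overnight), then incubated in 2% FBS RPMI with compounds for 4 h, 2 h and 2 h, respectively, at 1% DMSO or a 10 μM top concentration.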
`CCNCc1nc2c(N)nc3cc(-c4cc[nH]n4)ccc3c2[nH]1` [Compound 101, 2-[(Ethylamino)methyl]-7-(1H-pyrazol-3-yl)-1H-imidazo[4,5-c]quinolin-4-amine hydrochloride] gave an EC50 of 270 nM. `CC(=O)N(C)Cc1nc2c(N)nc3cc(-n4cccn4)ccc3c2[nH]1` [Compound 102, N-((4-Amino-7-(1H-pyrazol-1-yl)-1H-imidazo[4,5-c]quinolin-2-yl)methyl)-N-methylacetamide] gave an EC50 of 1600 nM. Work on `CN(Cc1nc2c(N)nc3cc(-n4cccn4)ccc3c2[nH]1)S(C)(=O)=O` [Compound 119] yielded an EC50 of 1380 nM. Work on `CN(Cc1nc2c(N)nc3cc(-c4cc[nH]n4)ccc3c2[nH]1)C(=O)C1CC1` [Compound 120] yielded an EC50 of 1690 nM. In the case of `CCN(Cc1nc2c(N)nc3cc(-c4cc[nH]n4)ccc3c2n1C)C(C)=O` [Compound 121], the EC50 is reported as 1820 nM. Compound `CCC(=O)N(C)Cc1nc2c(N)nc3cc(-c4cc[nH]n4)ccc3c2[nH]1` [Compound 122] has an EC50 of 1400 nM. `CCN(Cc1nc2c(N)nc3cc(-c4cc[nH]n4)ccc3c2[nH]1)S(C)(=O)=O` [Compound 124] was tested, and the EC50 was 2400 nM. `CCC(=O)N(CC)Cc1nc2c(N)nc3cc(-c4cc[nH]n4)ccc3c2[nH]1` [Compound 125] gave an EC50 of 2100 nM. Work on `CCN(Cc1nc2c(N)nc3cc(-c4cc[nH]n4)ccc3c2[nH]1)C(=O)NC` [Compound 128] yielded an EC50 of 2900 nM. In the case of `CC(=O)N(C)Cc1nc2c(N)nc3cc(-c4cc[nH]n4)ccc3c2[nH]1` [Compound 129], the EC50 is reported as 3600 nM. In the case of `CCN(Cc1nc2c(N)nc3cc(-n4cccn4)ccc3c2[nH]1)C(N)=O` [Compound 130], the EC50 is reported as 3300 nM. `NCc1nc2c(N)nc3cc(-c4cc[nH]n4)ccc3c2[nH]1` [Compound 131] was tested, and the EC50 was 3500 nM. `CCN(Cc1nc2c(N)nc3cc(-n4nccn4)ccc3c2[nH]1)C(C)=O` [Compound 132] was tested, and the EC50 was 3500 nM. Work on `CC(c1nc2c(N)nc3cc(-c4cccnc4)ccc3c2[nH]1)N1CCCC1=O` (stereo not shown) [Compound 138] yielded an EC50 of 6700 nM. With `CC(=O)N(Cc1nc2c(N)nc3cc(-c4cc[nH]n4)ccc3c2[nH]1)C(C)C` [Compound 140] the EC50 was 7300 nM. Work on `Nc1nc2ccc(Cl)cc2c2[nH]c(CN3CCCC3=O)nc12` [Compound 141] yielded an EC50 of 9000 nM. `CC(C)(C)OC(=O)NCc1nc2c(N)nc3cc(-c4cc[nH]n4)ccc3c2[nH]1` [Compound 142] was tested, and the EC50 was 9100 nM. In the case of `Nc1nc2cc(Cl)ccc2c2[nH]c(CN3CCCC3=O)nc12` [Compound 143], the EC50 is reported as 9400 nM. With `Nc1nc2cc(-c3ccc(Cl)nc3)ccc2c2[nH]c(CN3CCCC3=O)nc12` [Compound 153] the EC50 was 12000 nM. Work on `CCNCc1nc2c(N)nc3cc(OC)ccc3c2[nH]1` [Compound 154] yielded an EC50 of 16100 nM. Work on `CCN(Cc1nc2c(N)nc3cc(-c4ncc[nH]4)ccc3c2[nH]1)C(=O)OC(C)(C)C` [Compound 155] yielded an EC50 of 17400 nM. For `Nc1nc2cc(-n3ncc4ccccc43)ccc2c2[nH]c(CN3CCCC3=O)nc12` [Compound 157], the EC50 was 23400 nM. `CCN(Cc1nc2c(N)nc3cc(OC)ccc3c2[nH]1)C(C)=O` [Compound 158, N-((4-Amino-7-methoxy-1H-imidazo[4,5-c]quinolin-2-yl)methyl)-N-ethylacetamide] gave an EC50 of 24500 nM. Work on `CCN(Cc1nc2c(N)nc3cc(Cl)c(Cl)cc3c2[nH]1)C(C)=O` [Compound 159] yielded an EC50 of 25900 nM. `CCNCc1nc2c(N)nc3cc(-c4ncc[nH]4)ccc3c2[nH]1` [Compound 162] gave an EC50 of 42000 nM. In the case of `CCN(Cc1nc2c(N)nc3cc(-c4cc[nH]n4)ccc3c2[nH]1)CC(C)C` [Compound 453, 2-{[ethyl(2-methylpropyl)amino]methyl}-7-(1H-pyrazol-3-yl)-1H-imidazo[4,5-c]quinolin-4-amine], the EC50 is reported as 710 nM. Work on `CCN(CC)C(=O)N(CC)Cc1nc2c(N)nc3cc(-c4cc[nH]n4)ccc3c2[nH]1` [Compound 454, 1-{[4-amino-7-(1H-pyrazol-3-yl)-1H-imidazo[4,5-c]quinolin-2-yl]methyl}-1,3,3-triethylurea] yielded an EC50 of 740 nM. `CCN(Cc1nc2c(N)nc3cc(-c4cc[nH]n4)ccc3c2[nH]1)C(=O)N1CCOCC1` [Compound 455, N-{[4-amino-7-(1H-pyrazol-3-yl)-1H-imidazo[4,5-c]quinolin-2-yl]methyl}-N-ethylmorpholine-4-carboxamide] was tested, and the EC50 was 2000 nM. Work on `CCN(Cc1nc2c(N)nc3cc(-c4cc[nH]n4)ccc3c2[nH]1)C(=O)NC(C)(C)C` [Compound 456, 1-{[4-amino-7-(1H-pyrazol-3-yl)-1H-imidazo[4,5-c]quinolin-2-yl]methyl}-3-tert-butyl-1-ethylurea] yielded an EC50 of 2200 nM. In the case of `CCNC(=O)N(CC)Cc1nc2c(N)nc3cc(-c4cc[nH]n4)ccc3c2[nH]1` [Compound 457, 1-{[4-amino-7-(1H-pyrazol-3-yl)-1H-imidazo[4,5-c]quinolin-2-yl]methyl}-1,3-diethylurea], the EC50 is reported as 6600 nM. `CCN(Cc1nc2c(N)nc3cc(-c4cc[nH]n4)ccc3c2[nH]1)S(=O)(=O)N(C)C` [Compound 458, 2-{[(dimethylsulfamoyl)(ethyl)amino]methyl}-7-(1H-pyrazol-3-yl)-1H-imidazo[4,5-c]quinolin-4-amine] was tested, and the EC50 was 2100 nM. For `CCN(Cc1nc2c(N)nc3cc(-c4cc[nH]n4)ccc3c2[nH]1)S(=O)(=O)C(C)C` [Compound 459, N-{[4-amino-7-(1H-pyrazol-3-yl)-1H-imidazo[4,5-c]quinolin-2-yl]methyl}-N-ethylpropane-2-sulfonamide], the EC50 was 6700 nM. Work on `CCCS(=O)(=O)N(CC)Cc1nc2c(N)nc3cc(-c4cc[nH]n4)ccc3c2[nH]1` [Compound 460, N-{[4-amino-7-(1H-pyrazol-3-yl)-1H-imidazo[4,5-c]quinolin-2-yl]methyl}-N-ethylpropane-1-sulfonamide] yielded an EC50 of 1500 nM. Work on `CCNCc1nc2c(N)nc3cc(-c4ccn[nH]4)ccc3c2n1CCO` [Compound 462, 2-[4-Amino-2-[(ethylamino)methyl]-7-(1H-pyrazol-5-yl)-1H-imidazo[4,5-c]quinolin-1-yl]ethan-1-ol] yielded an EC50 of 5500 nM. `CCn1c(CN2CCCC2=O)nc2c(N)nc3cc(-c4cccs4)ccc3c21` [Compound 463, 1-{[4-amino-1-ethyl-7-(thiophen-2-yl)-1H-imidazo[4,5-c]quinolin-2-yl]methyl}pyrrolidin-2-one] showed an EC50 of 220 nM. `CCNCc1nc2c(N)nc3cc(-c4ccn[nH]4)ccc3c2n1CC` [Compound 464, 1-ethyl-2-[(ethylamino)methyl]-7-(1H-pyrazol-5-yl)-1H-imidazo[4,5-c]quinolin-4-amine] showed an EC50 of 240 nM. Work on `CCn1c(CN2CCCC2=O)nc2c(N)nc3cc(-n4cccn4)ccc3c21` [Compound 465, 1-{[4-amino-1-ethyl-7-(1H-pyrazol-1-yl)-1H-imidazo[4,5-c]quinolin-2-yl]methyl}pyrrolidin-2-one] yielded an EC50 of 1000 nM. For `CCn1c(CN2CCCC2=O)nc2c(N)nc3cc(-c4ccn[nH]4)ccc3c21` [Compound 466, 1-{[4-amino-1-ethyl-7-(1H-pyrazol-5-yl)-1H-imidazo[4,5-c]quinolin-2-yl]methyl}pyrrolidin-2-one], the EC50 was 1100 nM. `CCNCc1nc2c(N)nc3cc(-n4cccn4)ccc3c2n1CC` [Compound 467, 1-ethyl-2-((ethylamino)methyl)-7-(1H-pyrazol-1-yl)-1H-imidazo[4,5-c]quinolin-4-amine] showed an EC50 of 1200 nM. `CCNCc1nc2c(N)nc3cc(-c4cccs4)ccc3c2n1CC` [Compound 468, 1-ethyl-2-[(ethylamino)methyl]-7-(thiophen-2-yl)-1H-imidazo[4,5-c]quinolin-4-amine] was tested, and the EC50 was 2100 nM. Compound `Nc1nc2cc(-c3cccs3)ccc2c2c1nc(CN1CCCC1=O)n2CCO` [Compound 469, 1-{[4-amino-1-(2-hydroxyethyl)-7-(thiophen-2-yl)-1H-imidazo[4,5-c]quinolin-2-yl]methyl}pyrrolidin-2-one] has an EC50 of 670 nM. With `CCC(=O)N(CC)Cc1nc2c(N)nc3cc(-c4cccs4)ccc3c2n1CCO` [Compound 470, N-{[4-amino-1-(2-hydroxyethyl)-7-(thiophen-2-yl)-1H-imidazo[4,5-c]quinolin-2-yl]methyl}-N-ethylpropanamide] the EC50 was 690 nM. With `CCNCc1nc2c(N)nc3cc(-c4cccs4)ccc3c2n1CCO` [Compound 471, 2-{4-amino-2-[(ethylamino)methyl]-7-(thiophen-2-yl)-1H-imidazo[4,5-c]quinolin-1-yl}ethan-1-ol] the EC50 was 1200 nM. With `CCN(Cc1nc2c(N)nc3cc(-c4cccs4)ccc3c2n1CC)C(C)=O` [Compound 472, N-{[4-amino-1-ethyl-7-(thiophen-2-yl)-1H-imidazo[4,5-c]quinolin-2-yl]methyl}-N-ethylacetamide] the EC50 was 430 nM. `CCC(=O)N(CC)Cc1nc2c(N)nc3cc(-c4ccn[nH]4)ccc3c2n1CC` [Compound 473, N-{[4-amino-1-ethyl-7-(1H-pyrazol-5-yl)-1H-imidazo[4,5-c]quinolin-2-yl]methyl}-N-ethylpropanamide] showed an EC50 of 220 nM. `CCN(Cc1nc2c(N)nc3cc(-c4ccn[nH]4)ccc3c2n1CC)C(C)=O` [Compound 474, N-{[4-amino-1-ethyl-7-(1H-pyrazol-5-yl)-1H-imidazo[4,5-c]quinolin-2-yl]methyl}-N-ethylacetamide] gave an EC50 of 1200 nM. Compound `CCC(=O)N(CC)Cc1nc2c(N)nc3cc(-c4ccn[nH]4)ccc3c2n1CCO` [Compound 475, N-{[4-amino-1-(2-hydroxyethyl)-7-(1H-pyrazol-5-yl)-1H-imidazo[4,5-c]quinolin-2-yl]methyl}-N-ethylpropanamide] has an EC50 of 23000 nM. In the case of `CCN(Cc1nc2c(N)nc3cc(-n4cccn4)ccc3c2n1CCO)C(C)=O` [Compound 476, N-{[4-amino-1-(2-hydroxyethyl)-7-(1H-pyrazol-1-yl)-1H-imidazo[4,5-c]quinolin-2-yl]methyl}-N-ethylacetamide], the EC50 is reported as 6100 nM. In the case of `CCNCc1nc2c(N)nc3cc(-n4cccn4)ccc3c2n1CCO` [Compound 477, 2-[4-amino-2-[(ethylamino)methyl]-7-(1H-pyrazol-1-yl)-1H-imidazo[4,5-c]quinolin-l-yl]ethan-1-ol], the EC50 is reported as 6300 nM.
